This is an account of results in patent US20210387941A1, “Diphenyl-like Compound, Intermediate Thereof, Preparation Method Therefor, Pharmaceutical Composition Thereof And Uses Thereof” (SHANGHAI MAXINOVEL PHARMACEUTICALS CO., LTD., priority 2018, published 2021).

SMILES strings stand for the structures.

In this experiment the target is T1, PD-1/PD-L1 (Homo sapiens, UniProt Q9NZQ7).
T1 construct: tag1 or tag2 (identity not disclosed); purchased CisBio 64CUS000C-1
T1 sequence (Q9NZQ7 19-238 limits assumed): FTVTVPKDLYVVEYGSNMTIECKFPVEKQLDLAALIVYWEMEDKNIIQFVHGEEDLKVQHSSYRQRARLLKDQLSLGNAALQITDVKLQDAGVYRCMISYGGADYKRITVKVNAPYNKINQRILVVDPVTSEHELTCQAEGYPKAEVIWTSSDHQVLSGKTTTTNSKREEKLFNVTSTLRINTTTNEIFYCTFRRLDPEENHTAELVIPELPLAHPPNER
Description: Homogeneous Time-Resolved Fluorescence (HTRF) binding test. Conditions: CisBio kit #64CUS000C-1, read-out: IC50 values of compounds binding to PD-1/PD-L1. How it is done:
The binding ability of the compounds of the present disclosure to PD-1/PD-L1 was detected using Homogeneous Time-Resolved Fluorescence (HTRF) binding test.
The purchased kit (CisBio, #64CUS000C-1) contained the reagents needed for experiments, such as PD-1, PD-L1, anti-tag1-Eu, Anti-tag2-XL665, Dilute Buffer and Detection Buffer.
1. The compound was prepared with 100% DMSO to 10 concentrations with a concentration gradient of 3 times.
2. A solution of the compound in DMSO was added into Dilute Buffer, mixed uniformly, and then transferred into 96-well plate.
3. PD-L1 was diluted with Dilute Buffer, and then added into the above 96-well plate.
4. PD-1 was diluted with Dilute Buffer, and then added into the above 96-well plate and incubated at room temperature for 30 minutes.
5. A part of anti-tag1-Eu and a part of Anti-tag2-XL665 were added into Detection Buffer, mixed uniformly and then transferred into the above 96-well plate.
6. The mixed solution in this 96-well plate was incubated at room temperature for 1 hour to 24 hours.
7. HTRF values were read with Envision.
In general terms: Time-resolved FRET reads energy transfer from a long-lived donor to a nearby acceptor.
Consider `Cc1c(/C=C/c2cc(CNCCO)ccc2C(F)(F)F)cccc1-c1cccc(-c2cc(CNCCO)ccc2F)c1C` [Compound 10, 2-({[(3-(E)-2-{3-[3-(5-{[(2-hydroxyethyl)amino]methyl}-2-fluoro-phenyl)-2-methylphenyl]-2-methylphenyl}ethenyl)-4-(trifluoromethyl)phenyl]methyl}amino)-1-ethanol], for which the IC50 stood at 14 nM.

In the case of `Cc1c(/C=C/c2cc(CNCCO)ccc2C(F)(F)F)cccc1-c1cccc(-c2cccc(CNCCO)c2)c1C` [Compound 9, 2-({[(3-(E)-2-{3-[3-(3-{[(2-hydroxyethyl)amino]methyl}phenyl)-2-methylphenyl]-2-methylphenyl}ethenyl)-4-(trifluoromethyl)phenyl]methyl}amino)-1-ethanol], the IC50 stood at 7.5 nM.

For `Cc1c(/C=C/c2cc(CN[C@@](C)(CO)C(=O)O)ccc2C(F)(F)F)cccc1-c1cccc(/C=C/c2cc(CNCCO)ccc2C(F)(F)F)c1Cl` [Compound 6, (2S)-3-hydroxy-2-[({3-[(E)-2-(3-{3-[(E)-2-(5-{[(2-hydroxyethyl)amino]methyl}-2-(trifluoromethyl)phenyl)ethenyl]-2-chlorophenyl}-2-methylphenyl)ethenyl]-4-(trifluoromethyl)phenyl}methyl)amino]-2-methylpropanoic Acid], the IC50 stood at 2.8 nM. The value for `COCCOc1ccc(F)c(/C=C/c2cccc(-c3cccc(/C=C/c4cc(CN[C@@](C)(CO)C(=O)O)ccc4C(F)(F)F)c3C)c2C)c1` [Compound 8, (2S)-3-hydroxy-2-[({3-[(E)-2-[3-(3-(E)-{2-[2-fluoro-5-(2-methoxyethoxy)phenyl]ethenyl}-2-methylphenyl)-2-methylphenyl]ethenyl]-4-(trifluoromethyl)phenyl}methyl)amino]-2-methylpropanoic Acid] was 510 nM; that for `Cc1c(/C=C/c2cc(CNCCO)ccc2C(F)(F)F)cccc1-c1cccc(/C=C/c2cc(CNCCO)ccc2C(F)(F)F)c1Cl` [Compound 7, 2-[({3-[(E)-2-(3-{3-[(E)-2-(5-{[(2-hydroxyethyl)amino]methyl}-2-(trifluoromethyl)phenyl)ethenyl]-2-chlorophenyl}-2-methylphenyl)ethenyl]-4-(trifluoromethyl)phenyl}methyl)amino]-1-ethanol] was 2.6 nM.

Turning to `Cc1c(/C=C/c2cc(CNCCO)ccc2C(F)(F)F)cccc1-c1cccc(/C=C/c2cc(CNCCO)ccc2C(F)(F)F)c1CF` [Compound 12, 2-[({3-[(E)-2-(3-{3-[(E)-2-(5-{[(2-hydroxyethyl)amino]methyl}-2-(trifluoromethyl)phenyl)ethenyl]-2-(fluoromethyl)phenyl}-2-methylphenyl)ethenyl]-4-(trifluoromethyl)phenyl}methyl)amino]-1-ethanol], the IC50 worked out at 4.7 nM.

For `COCCNCc1ccc(C(F)(F)F)c(/C=C/c2cccc(-c3cccc(/C=C/c4cc(CN[C@@](C)(CO)C(=O)O)ccc4C(F)(F)F)c3C)c2Cl)c1` [Compound 5, (2S)-3-hydroxy-2-[({3-[(E)-2-(3-{3-[(E)-2-(5-{[(2-methoxyethyl)amino]methyl}-2-(trifluoromethyl)phenyl)ethenyl]-2-chlorophenyl}-2-methylphenyl)ethenyl]-4-(trifluoromethyl)phenyl}methyl)amino]-2-methylpropanoic Acid], the IC50 is 2.3 nM. The value for `COCCNCc1ccc(C(F)(F)F)c(/C=C/c2cccc(-c3cccc(/C=C/c4cc(CNCCO)ccc4C(F)(F)F)c3C)c2Cl)c1` [Compound 4, 2-[({3-[(E)-2-(3-{3-[(E)-2-(5-{[(2-methoxyethyl)amino]methyl}-2-(trifluoromethyl)phenyl)ethenyl]-2-chlorophenyl}-2-methylphenyl)ethenyl]-4-(trifluoromethyl)phenyl}methyl)amino]-1-ethanol] was 4.3 nM. The value for `Cc1c(/C=C/c2cc(CN[C@@](C)(CO)C(=O)O)ccc2C(F)(F)F)cccc1-c1cccc(-c2cc(CN[C@@](C)(CO)C(=O)O)ccc2F)c1C` [Compound 11, (2S)-2-[({3-[(E)-2-(3-{3-[5-({[(1S)-1-carboxyl-2-hydroxy-1-methylethyl]amino}methyl)-2-fluorophenyl]-2-methylphenyl}-2-methylphenyl)ethenyl]-4-(trifluoromethyl)phenyl}methyl)amino]-3-hydroxy-2-methylpropanoic acid] was 8.7 nM. The value for `Cc1c(/C=C/c2cc(CNCCO)ccc2C(F)(F)F)cccc1-c1cccc(/C=C/c2cc(CN[C@@](C)(CO)C(=O)O)ccc2C(F)(F)F)c1C` [Compound 2, (2S)-3-hydroxy-2-[({3-[(E)-2-(3-{3-[(E)-2-(5-{[(2-hydroxyethyl)amino]methyl}-2-(trifluoromethyl)phenyl)ethenyl]-2-methylphenyl}-2-methylphenyl)ethenyl]-4-(trifluoromethyl)phenyl}methyl)amino]-2-methylpropanoic Acid] was 4.4 nM; that for `Cc1c(/C=C/c2cc(CNCCO)ccc2C(F)(F)F)cccc1-c1cccc(/C=C/c2cc(CNCCO)ccc2C(F)(F)F)c1C` [Compound 1, 2-[({3-[(E)-2-(3-{3-[(E)-2-(5-{[(2-hydroxyethyl)amino]methyl}-2-(trifluoromethyl)phenyl)ethenyl]-2-methylphenyl}-2-methylphenyl)ethenyl]-4-(trifluoromethyl)phenyl}methyl)amino]-1-ethanol] was 6.1 nM; that for `Cc1c(/C=C/c2cc(CN[C@@](C)(CO)C(=O)O)ccc2C(F)(F)F)cccc1-c1cccc(/C=C/c2cc(CN[C@@](C)(CO)C(=O)O)ccc2C(F)(F)F)c1C` [Compound 3, (2S)-2-[({3-[(E)-2-(3-{3-[(E)-2-[5-({[(1S)-1-carboxyl-2-hydroxy-1-methylethyl]amino}methyl)-2-(trifluoromethyl)phenyl]ethenyl]-2-methylphenyl}-2-methylphenyl)ethenyl]-4-(trifluoromethyl)phenyl}methyl)amino]-3-hydroxy-2-methylpropanoic Acid] was 3.2 nM.
